Legend:
Test in all cases: relative viability (nuclei count vs DMSO), 5 days (fraction); higher = more cells survive
NCI-H1792 = system: NCI-H1792
Outline: (§1)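 A single step with final 0.05% Triton X-100, 1% formaldehyde and 1 ug/ml Hoechst fixed the cells and stained nuclei 5 days after treatment. Lung cancer cell lines in 1536-well plates had been treated by pin tool the day after seeding with one drug alone or a fixed anchor-drug dose plus five library-drug doses (not always all listed) in √10 steps, and nuclei were counted on 4× images. Relative viability is the ratio of nuclei in treated wells to nuclei in vehicle wells, taken as the median of duplicate plates.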

A-427 = system: A-427
Outline: as §1

NCI-H322M = system: NCI-H322M
Outline: as §1

NCI-H3122 = system: NCI-H3122
Outline: as §1

NCI-H1437 = system: NCI-H1437
Outline: as §1

PC-14 = system: PC-14
Outline: as §1

EKVX = system: EKVX
Outline: as §1

LCLC-97TM1 = system: LCLC-97TM1
Outline: as §1

LK-2 = system: LK-2
Outline: as §1

NCI-H1915 = system: NCI-H1915
Outline: as §1

LXF-289 = system: LXF-289
Outline: as §1

NCI-H2087 = system: NCI-H2087
Outline: as §1

COR-L23 = system: COR-L23
Outline: as §1

ABC-1 = system: ABC-1
Outline: as §1

NCI-H460 = system: NCI-H460
Outline: as §1

NCI-H661 = system: NCI-H661
Outline: as §1

NCI-H1666 = system: NCI-H1666
Outline: as §1

NCI-H1563 = system: NCI-H1563
Outline: as §1

NCI-H647 = system: NCI-H647
Outline: as §1

NCI-H727 = system: NCI-H727
Outline: as §1

NCI-H2085 = system: NCI-H2085
Outline: as §1

NCI-H2126 = system: NCI-H2126
Outline: as §1

LC-2-ad = system: LC-2-ad
Outline: as §1

`Nc1cccc2c1CN(C1CCC(=O)NC1=O)C2=O` (stereo not drawn) [Lenalidomide] + CCNC(=O)c1noc(-c2cc(C(C)C)c(O)cc2O)c1-c1ccc(CN2CCOCC2)cc1 [Luminespib] (partner 0.01 µM) showed a relative viability (NCI-H1792; first compound 0.253 µM) of 0.357, a relative viability (NCI-H1792; first compound 2.53 µM) of 0.449 and a relative viability (NCI-H1792; first compound 8 µM) of 0.495. For the same molecule, the relative viability (A-427; first compound 0.253 µM) was 0.807, the relative viability (A-427; first compound 0.8 µM) was 1 and the relative viability (A-427; first compound 2.53 µM) was 0.914. It also gave a relative viability (A-427; first compound 8 µM) of 1.01, a relative viability (NCI-H322M; first compound 0.253 µM) of 0.81 and a relative viability (NCI-H322M; first compound 0.8 µM) of 0.982. For the same molecule, the relative viability (NCI-H322M; first compound 2.53 µM) was 1.05, the relative viability (NCI-H322M; first compound 8 µM) was 1.01 and the relative viability (NCI-H3122; first compound 0.253 µM) was 0.0887. For the same molecule, the relative viability (NCI-H3122; first compound 0.8 µM) was 0.0863, the relative viability (NCI-H3122; first compound 2.53 µM) was 0.0693 and the relative viability (NCI-H3122; first compound 8 µM) was 0.102. For the same molecule, the relative viability (NCI-H1437; first compound 0.253 µM) was 1.19, the relative viability (NCI-H1437; first compound 0.8 µM) was 1.08 and the relative viability (NCI-H1437; first compound 2.53 µM) was 1.11. It also gave a relative viability (NCI-H1437; first compound 8 µM) of 1.23, a relative viability (PC-14; first compound 0.253 µM) of 0.152 and a relative viability (PC-14; first compound 0.8 µM) of 0.191. The relative viability (PC-14; first compound 2.53 µM) was 0.151, the relative viability (PC-14; first compound 8 µM) was 0.133 and the relative viability (EKVX; first compound 0.253 µM) was 0.807. It also gave a relative viability (EKVX; first compound 0.8 µM) of 0.84, a relative viability (EKVX; first compound 2.53 µM) of 0.955 and a relative viability (EKVX; first compound 8 µM) of 0.801. It also gave a relative viability (LCLC-97TM1; first compound 0.253 µM) of 0.763, a relative viability (LCLC-97TM1; first compound 0.8 µM) of 0.707 and a relative viability (LCLC-97TM1; first compound 2.53 µM) of 0.848. It also gave a relative viability (LCLC-97TM1; first compound 8 µM) of 0.761, a relative viability (LK-2; first compound 0.253 µM) of 0.195 and a relative viability (LK-2; first compound 0.8 µM) of 0.179. The relative viability (LK-2; first compound 2.53 µM) was 0.173, the relative viability (LK-2; first compound 8 µM) was 0.193 and the relative viability (NCI-H1915; first compound 0.253 µM) was 0.818. It also gave a relative viability (NCI-H1915; first compound 0.8 µM) of 0.845, a relative viability (NCI-H1915; first compound 2.53 µM) of 0.802 and a relative viability (NCI-H1915; first compound 8 µM) of 0.915. The relative viability (LXF-289; first compound 0.253 µM) was 0.799, the relative viability (LXF-289; first compound 0.8 µM) was 0.686 and the relative viability (LXF-289; first compound 2.53 µM) was 0.768. For the same molecule, the relative viability (LXF-289; first compound 8 µM) was 0.725, the relative viability (NCI-H2087; first compound 0.253 µM) was 0.233 and the relative viability (NCI-H2087; first compound 0.8 µM) was 0.156. It also gave a relative viability (NCI-H2087; first compound 2.53 µM) of 0.14, a relative viability (NCI-H2087; first compound 8 µM) of 0.169 and a relative viability (COR-L23; first compound 0.253 µM) of 0.683. It also gave a relative viability (COR-L23; first compound 0.8 µM) of 0.766, a relative viability (COR-L23; first compound 2.53 µM) of 0.735 and a relative viability (COR-L23; first compound 8 µM) of 0.758. For the same molecule, the relative viability (ABC-1; first compound 0.253 µM) was 0.908, the relative viability (ABC-1; first compound 2.53 µM) was 0.684 and the relative viability (ABC-1; first compound 8 µM) was 0.517. It also gave a relative viability (NCI-H460; first compound 0.253 µM) of 0.0318, a relative viability (NCI-H460; first compound 0.8 µM) of 0.0303 and a relative viability (NCI-H460; first compound 2.53 µM) of 0.035. For the same molecule, the relative viability (NCI-H460; first compound 8 µM) was 0.0323, the relative viability (NCI-H661; first compound 0.253 µM) was 0.835 and the relative viability (NCI-H661; first compound 0.8 µM) was 0.864. It also gave a relative viability (NCI-H661; first compound 2.53 µM) of 0.847, a relative viability (NCI-H661; first compound 8 µM) of 0.9 and a relative viability (NCI-H1666; first compound 0.253 µM) of 0.977. It also gave a relative viability (NCI-H1666; first compound 2.53 µM) of 1.02, a relative viability (NCI-H1666; first compound 8 µM) of 1.04 and a relative viability (NCI-H1563; first compound 0.253 µM) of 0.535. It also gave a relative viability (NCI-H1563; first compound 0.8 µM) of 0.526, a relative viability (NCI-H1563; first compound 2.53 µM) of 0.468 and a relative viability (NCI-H1563; first compound 8 µM) of 0.581. It also gave a relative viability (NCI-H647; first compound 0.253 µM) of 0.133, a relative viability (NCI-H647; first compound 0.8 µM) of 0.284 and a relative viability (NCI-H647; first compound 2.53 µM) of 0.203. The relative viability (NCI-H647; first compound 8 µM) was 0.26, the relative viability (NCI-H727; first compound 0.253 µM) was 0.45 and the relative viability (NCI-H727; first compound 0.8 µM) was 0.316. For the same molecule, the relative viability (NCI-H727; first compound 2.53 µM) was 0.473, the relative viability (NCI-H727; first compound 8 µM) was 0.477 and the relative viability (NCI-H2085; first compound 0.253 µM) was 0.487. The relative viability (NCI-H2085; first compound 0.8 µM) was 0.487, the relative viability (NCI-H2085; first compound 2.53 µM) was 0.367 and the relative viability (NCI-H2085; first compound 8 µM) was 0.437. The relative viability (NCI-H2126; first compound 0.253 µM) was 0.915, the relative viability (NCI-H2126; first compound 0.8 µM) was 0.935 and the relative viability (NCI-H2126; first compound 2.53 µM) was 0.996. For the same molecule, the relative viability (NCI-H2126; first compound 8 µM) was 0.871, the relative viability (LC-2-ad; first compound 0.253 µM) was 0.912 and the relative viability (LC-2-ad; first compound 2.53 µM) was 1.03. The relative viability (LC-2-ad; first compound 8 µM) was 1.18.

From the supplement of paper PMC10307832
